# Assay results from patent US11560388B2, “Anthelmintic aza-benzothiophene and aza-benzofuran compounds” (Boehringer Ingelheim Vetmedica GmbH, priority 2019, dated 2023).
# How the values were obtained:
# [1] = tested on: Haemonchus contortus; test: In vivo efficacy against Haemonchus contortus in Mongolian jird (Meriones unguiculatus)
# [2] = tested on: Trichostrongylus colubriformis; test: In vivo efficacy against Trichostrongylus colubriformis in Mongolian jird (Meriones unguiculatus)
# [3] = tested on: L1 Haemonchus contortus larvae; test: Screening of activity against Haemonchus contortus (larval development L1 to L3, dose response); assay type: cell-based; settings: 96 h, read-out: EC50 (development of the larvae from L1 to L3)
# [4] = tested on: Dirofilaria immitis; test: In vivo efficacy against Dirofilaria immitis in immunodeficient NSG mice; settings: vs control group
# [5] = tested on: microfilariae of Dirofilaria immitis; test: Screening of activity against microfilaria of Dirofilaria immitis (motility, dose response); assay type: cell-based; settings: 72 h, read-out: EC50 (motility of the microfilaria)
# [6] = Study 1, jird, 10 mg/kg, positive control
# [7] = Study 2, jird, 10 mg/kg, positive control
# [8] = Study 3, jird, 10 mg/kg, positive control
# [9] = Study 4, jird, 10 mg/kg, positive control
# [10] = Study 1, jird, 25 mg/kg oral gavage, necropsy 3 days after treatment
# [11] = Study #3, NSG mice, 25 mg/kg oral
# [12] = Study 3, jird, 25 mg/kg oral gavage
# [13] = Study 4, jird, 5 mg/kg oral gavage
# [14] = Study #2, NSG mice, 25 mg/kg oral
# [15] = Study #2, NSG mice, 50 mg/kg oral
# [16] = Study 4, jird, 25 mg/kg oral gavage
# [17] = Study 2, jird, 25 mg/kg oral gavage
structure (smiles),measurement,setting,value
"c1ccc([C@H]2CN3CCSC3=N2)cc1 [Levamisole, levamisole, reference compound]",% Reduction H. contortus,[1]; [6],98.4%
same,% Reduction H. contortus,[1]; [7],100.0%
same,% Reduction H. contortus,[1]; [8],100.0%
same,% Reduction H. contortus,[1]; [9],99.8%
same,% Reduction T. columbriformis,[2]; [6],89.1%
same,% Reduction T. columbriformis,[2]; [7],96.4%
same,% Reduction T. columbriformis,[2]; [8],100.0%
same,% Reduction T. columbriformis,[2]; [9],72.2%
C=C(C)c1c(C(=O)N[C@H]2CCOc3ccccc32)sc2c(-c3cc(Cl)cc(Cl)c3)ccnc12 [Compound 285],% Reduction H. contortus,[1]; [10],100.0%
same,% Reduction T. columbriformis,[2]; [10],100.0%
CC(C)(O)c1c(C(=O)N[C@H]2CCOc3ccccc32)sc2c(-c3ccnc(Cl)c3)ccnc12 [Compound 268-4],EC50,[3],100 to 10000 nM
CC(C)c1c(C(=O)N[C@H]2CCOc3ccc(F)cc32)sc2c(-c3cc(F)cc(F)c3)ccnc12 [Compound 257],% Reduction worms,[4]; [11],45%
"CC(C)(O)c1c(C(=O)N[C@H]2CCOc3ccccc32)sc2c(-c3cc(Cl)cc(Cl)c3)cncc12 [Compound 264-0, 7-(3,5-dichlorophenyl)-N-[(4S)-3,4-dihydro-2H-1-benzopyran-4-yl]-3-(2-hydroxypropan-2-yl)thieno[3,2-c]pyridine-2-carboxamide]",EC50,[3],< 100 nM
CC(C)(F)c1c(C(=O)N[C@H]2CCOc3ccccc32)sc2c(-c3cc(Cl)cc(Cl)c3)c(F)cnc12 [Compound 263],% Reduction H. contortus,[1]; [10],100.0%
same,% Reduction T. columbriformis,[2]; [10],100.0%
"CC(C)(F)c1c(C(=O)N[C@H]2CCOc3ccccc32)sc2c(-c3cc(Cl)cc(Cl)c3)cncc12 [Compound 264, 7-(3,5-dichlorophenyl)-N-[(4S)-3,4-dihydro-2H-1-benzopyran-4-yl]-3-(2-fluoropropan-2-yl)thieno[3,2-c]pyridine-2-carboxamide]",EC50,[5],< 10 nM
same,EC50,[3],< 100 nM
CC(C)c1c(C(=O)N[C@H]2CCOc3ccc(F)cc32)sc2c(-c3cc(Cl)cc(Cl)c3)ccnc12 [Compound 211],% Reduction worms,"[4]; Study #1, NSG mice, 25 mg/kg oral at Days 1, 15, 30 post-infection",61%
same,% Reduction H. contortus,[1]; [12],100.0%
same,% Reduction T. columbriformis,[2]; [12],100.0%
CC(C)c1c(C(=O)N[C@H]2CCOc3ccccc32)sc2c(-c3cc(F)cc(F)c3)c(F)cnc12 [Compound 204],% Reduction worms,"[4]; Study #1, NSG mice, 50 mg/kg oral at Days 1, 15, 30 post-infection",65%
same,% Reduction H. contortus,[1]; [12],100.0%
same,% Reduction H. contortus,[1]; [13],50.1%
same,% Reduction T. columbriformis,[2]; [12],100.0%
same,% Reduction T. columbriformis,[2]; [13],22.2%
CC(C)c1c(C(=O)N[C@H]2CCOc3ccccc32)sc2c(-c3cccc(F)c3)ccnc12 [Compound 207],% Reduction worms,[4]; [11],55%
"CC(C)c1c(C(=O)N[C@H]2CCOc3ccccc32)sc2c(C3(F)CCCCC3)ccnc12 [Compound 255, N-[(4S)-3,4-dihydro-2H-1-benzopyran-4-yl]-7-(1-fluorocyclohexyl)-3-isopropylthieno[3,2-b]pyridine-2-carboxamide]",EC50,[3],100 to 10000 nM
CC(C)c1c(C(=O)N[C@H]2CCOc3ccccc32)sc2c(-c3cc(F)cc(F)c3)ccnc12 [Compound 120],% Reduction worms,[4]; [14],47%
same,% Reduction worms,[4]; [15],33%
CC(C)c1c(C(=O)N[C@H]2CCOc3ccc(F)cc32)sc2c(-c3cc(F)cc(F)c3)c(F)cnc12 [Compound 260],% Reduction H. contortus,[1]; [16],23.5%
same,% Reduction T. columbriformis,[2]; [16],45.8%
CC(C)c1c(C(=O)N[C@H]2CCOc3ccccc32)sc2c(C3CCCCC3)ccnc12 [Compound 223],EC50,[5],< 10 nM
same,EC50,[3],100 to 10000 nM
CC(C)c1c(C(=O)N[C@H]2CCOc3ccccc32)sc2c(-c3cc(F)cc(F)c3)c(Cl)cnc12 [Compound 310],EC50,[5],100 to 10000 nM
same,EC50,[3],< 100 nM
"Cc1cc(F)cc(C)c1-c1ccnc2c(C(C)C)c(C(=O)N[C@H]3CCOc4ccccc43)sc12 [Compound 201, N-[(4S)-3,4-dihydro-2H-1-benzopyran-4-yl]-7-(4-fluoro-2,6-dimethylphenyl)-3-isopropylthieno[3,2-b]pyridine-2-carboxamide]",EC50,[3],100 to 10000 nM
C=C(C)c1c(C(=O)N[C@H]2CCOc3ccccc32)sc2c(-c3cc(F)cc(F)c3)ccnc12 [Compound 119],% Reduction worms,[4]; [14],67%
same,% Reduction worms,[4]; [15],37%
same,EC50,[3],100 to 10000 nM
CC(C)(F)c1c(C(=O)N[C@H]2CCOc3ccc(F)cc32)sc2c(-c3cc(Cl)cc(Cl)c3)ccnc12 [Compound 259],% Reduction H. contortus,[1]; [16],100.0%
same,% Reduction T. columbriformis,[2]; [16],99.5%
CC(C)(O)c1c(C(=O)N[C@H]2CCOc3ccccc32)sc2c(-c3cc(Cl)cc(Cl)c3)c(F)cnc12 [Compound 263-8],EC50,[5],< 10 nM
same,% Reduction H. contortus,[1]; [17],99.8%
same,% Reduction H. contortus,[1]; [13],99.8%
same,EC50,[3],< 100 nM
same,% Reduction T. columbriformis,[2]; [17],100.0%
same,% Reduction T. columbriformis,[2]; [13],99.9%
C[C@@H]1C[C@H](C)CN(c2ccnc3c(N4CCOCC4)c(C(=O)N[C@H]4CCOc5ccccc54)sc23)C1 [Compound 217],EC50,[5],100 to 10000 nM
O=C(N[C@H]1CCOc2ccccc21)c1sc2c(-c3cc(F)cc(F)c3)cccc2c1C1=CCOCC1 [Compound 102-1],EC50,[3],100 to 10000 nM
CC(C)(C)c1c(C(=O)N[C@H]2CCOc3ccccc32)sc2c(-c3cc(F)cc(F)c3)ccnc12 [Compound 210],% Reduction worms,[4]; [11],55%
same,% Reduction H. contortus,[1]; [12],100.0%
same,% Reduction T. columbriformis,[2]; [12],100.0%
CC(=O)c1c(C(=O)N[C@H]2CCOc3ccc(F)cc32)sc2c(-c3cc(Cl)cc(Cl)c3)ccnc12 [Compound 259-4],EC50,[5],100 to 10000 nM
CC(C)(F)c1c(C(=O)N[C@H]2CCOc3ccccc32)sc2c(-c3cc(Cl)cc(Cl)c3)ccnc12 [Compound 212],% Reduction worms,"[4]; Study #1, NSG mice, 23 mg/kg (table) oral at Days 1, 15, 30 post-infection",13%
C=C(C)c1c(C(=O)N[C@H]2CCOc3ccccc32)sc2c(-c3cc(F)cc(F)c3)cnnc12 [Compound 239-INT-1],EC50,[3],100 to 10000 nM
O=C(N[C@H]1CCOc2ccccc21)c1sc2c(-c3cc(F)cc(F)c3)ccnc2c1C(F)F [Compound 205],EC50,[5],100 to 10000 nM
same,EC50,[3],100 to 10000 nM
O=C(N[C@H]1CCOc2ccccc21)c1sc2c(-c3cc(F)cc(F)c3)ccnc2c1C(F)(F)C(F)(F)F [Compound 238],EC50,[5],< 10 nM
same,EC50,[3],100 to 10000 nM
